Source: PubChem BioAssay AID2060502 (Molecular Pharmacology Branch, DTP, NCI, 2025)

Test system: 885724-159-R-J1-PDC complex spheroid viability
Experiment: Anticancer human tumor 885724-159-R-J1-PDC patient-derived pancreatic adenocarcinoma cell line growth inhibition [GQUAD]
Details: for IC50: curve of first compound; for viability, T/C: stronger effect = lower value
How it was run: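 Multi-cell-type spheroids of tumor cells with HUVEC and mesenchymal stem cells, treated with drug combinations. Concentrations descend in half-log steps from near clinical Cmax, or from 10 microM where Cmax is unknown; viability read-out.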

[1] = second compound 0.0316 µM, first compound 0.0316 µM
[2] = second compound 0.0316 µM, first compound 0.1 µM
[3] = second compound 0.0316 µM, first compound 0.316 µM
[4] = second compound 0.0316 µM, first compound 1 µM
[5] = second compound 0.0316 µM, first compound 3.16 µM
[6] = second compound 0.0316 µM, first compound 10 µM
[7] = second compound 0.1 µM, first compound 0.0316 µM
[8] = second compound 0.1 µM, first compound 0.1 µM
[9] = second compound 0.1 µM, first compound 0.316 µM
[10] = second compound 0.1 µM, first compound 1 µM
[11] = second compound 0.1 µM, first compound 3.16 µM
[12] = second compound 0.1 µM, first compound 10 µM
[13] = second compound 0.316 µM, first compound 0.0316 µM
[14] = second compound 0.316 µM, first compound 0.1 µM
[15] = second compound 0.316 µM, first compound 0.316 µM
[16] = second compound 0.316 µM, first compound 1 µM
[17] = second compound 0.316 µM, first compound 3.16 µM
[18] = second compound 0.316 µM, first compound 10 µM
[19] = second compound 1 µM, first compound 0.0316 µM
[20] = second compound 1 µM, first compound 0.1 µM
[21] = second compound 1 µM, first compound 0.316 µM
[22] = second compound 1 µM, first compound 1 µM
[23] = second compound 1 µM, first compound 3.16 µM
[24] = second compound 1 µM, first compound 10 µM
[25] = second compound 3.16 µM, first compound 0.0316 µM
[26] = second compound 3.16 µM, first compound 0.1 µM
[27] = second compound 3.16 µM, first compound 0.316 µM
[28] = second compound 3.16 µM, first compound 1 µM
[29] = second compound 3.16 µM, first compound 3.16 µM
[30] = second compound 3.16 µM, first compound 10 µM
[31] = second compound 10 µM, first compound 0.0316 µM
[32] = second compound 10 µM, first compound 0.1 µM
[33] = second compound 10 µM, first compound 0.316 µM
[34] = second compound 10 µM, first compound 1 µM
[35] = second compound 10 µM, first compound 3.16 µM
[36] = second compound 10 µM, first compound 10 µM
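Further: spheroids exposed to agents for seven days before readout.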
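Wherever viability, T/C is given: percent of vehicle control viability where 100% = DMSO wells.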

Molecule `COc1ccc([C@@H](O)c2cc(-c3ncnc4cc(N5CCOCC5)ccc34)c(F)cc2Cl)nn1` + Cc1[nH]c2ccc(F)cc2c1-c1nc2c3cccnc3c3ncccc3c2[nH]1 has an IC50 (second compound 0.0316 µM) of 6.88 µM, an IC50 (second compound 0.1 µM) of 5.43 µM and an IC50 (second compound 0.316 µM) of 5.28 µM. The IC50 (second compound 1 µM) was 3.28 µM, the IC50 (second compound 3.16 µM) was < 0.0316 µM and the IC50 (second compound 10 µM) was 3.51 µM. The viability, T/C [1] was 101%, the viability, T/C [2] was 110% and the viability, T/C [3] was 108%. It also gave a viability, T/C [4] of 94%, a viability, T/C [5] of 68.5% and a viability, T/C [6] of 41.2%. For the same molecule, the viability, T/C [7] was 99%, the viability, T/C [8] was 97% and the viability, T/C [9] was 90.5%. It also gave a viability, T/C [10] of 82.3%, a viability, T/C [11] of 57.7% and a viability, T/C [12] of 40.5%. For the same molecule, the viability, T/C [13] was 92%, the viability, T/C [14] was 97.8% and the viability, T/C [15] was 83.6%. It also gave a viability, T/C [16] of 65.7%, a viability, T/C [17] of 66.5% and a viability, T/C [18] of 36.2%. It also gave a viability, T/C [19] of 76.1%, a viability, T/C [20] of 71.1% and a viability, T/C [21] of 82.8%. For the same molecule, the viability, T/C [22] was 68.5%, the viability, T/C [23] was 51% and the viability, T/C [24] was 34.3%. The viability, T/C [25] was 47.5%, the viability, T/C [26] was 46.3% and the viability, T/C [27] was 51.2%. For the same molecule, the viability, T/C [28] was 39.5%, the viability, T/C [29] was 33.7% and the viability, T/C [30] was 28.3%. The viability, T/C [31] was 72.4%, the viability, T/C [32] was 75.6% and the viability, T/C [33] was 62.6%. The viability, T/C [34] was 63.4%, the viability, T/C [35] was 52.9% and the viability, T/C [36] was 32.8%.
In the case of `C=CCn1c(=O)c2cnc(Nc3ccc(N4CCN(C)CC4)cc3)nc2n1-c1cccc(C(C)(C)O)n1` + CN(C)c1ccc(Nc2c3ccc(NC(=O)CCN4CCCC4)cc3nc3cc(NC(=O)CCN4CCCC4)ccc23)cc1, the IC50 (second compound 0.0316 µM) is reported as > 10 µM, the IC50 (second compound 0.1 µM) is reported as > 10 µM and the IC50 (second compound 0.316 µM) is reported as > 10 µM. It also gave an IC50 (second compound 1 µM) of 3.83 µM, an IC50 (second compound 3.16 µM) of 0.714 µM and an IC50 (second compound 10 µM) of 1.34 µM. The viability, T/C [1] was 99%, the viability, T/C [2] was 86.2% and the viability, T/C [3] was 74.4%. For the same molecule, the viability, T/C [4] was 81.6%, the viability, T/C [5] was 72.4% and the viability, T/C [6] was 73%. The viability, T/C [7] was 95.4%, the viability, T/C [8] was 83.6% and the viability, T/C [9] was 79.3%. It also gave a viability, T/C [10] of 73.7%, a viability, T/C [11] of 71.3% and a viability, T/C [12] of 72.5%. It also gave a viability, T/C [13] of 92%, a viability, T/C [14] of 81.8% and a viability, T/C [15] of 69.5%. The viability, T/C [16] was 63.4%, the viability, T/C [17] was 57.7% and the viability, T/C [18] was 52.3%. It also gave a viability, T/C [19] of 83.5%, a viability, T/C [20] of 66.7% and a viability, T/C [21] of 60.4%. For the same molecule, the viability, T/C [22] was 44.1%, the viability, T/C [23] was 57.2% and the viability, T/C [24] was 47.3%. For the same molecule, the viability, T/C [25] was 82.6%, the viability, T/C [26] was 60.7% and the viability, T/C [27] was 61.2%. The viability, T/C [28] was 40.7%, the viability, T/C [29] was 52.1% and the viability, T/C [30] was 38.7%. It also gave a viability, T/C [31] of 68.3%, a viability, T/C [32] of 69.5% and a viability, T/C [33] of 56.7%. It also gave a viability, T/C [34] of 50.4%, a viability, T/C [35] of 45.7% and a viability, T/C [36] of 19.6%.
For `COc1cc(C2c3cc4c(cc3C(OC3OC5COC(C)OC5C(O)C3O)C3COC(=O)C23)OCO4)cc(OC)c1O` (stereo unspecified) + Cc1cnc(CNC(=O)c2c(=O)c3ccc(N4CCCN(C)CC4)nc3n3c2sc2ccccc23)cn1, the IC50 (second compound 0.0316 µM) was > 10 µM, the IC50 (second compound 0.1 µM) was > 10 µM and the IC50 (second compound 0.316 µM) was > 10 µM. The IC50 (second compound 1 µM) was > 10 µM, the IC50 (second compound 3.16 µM) was > 10 µM and the IC50 (second compound 10 µM) was > 10 µM. The viability, T/C [1] was 113%, the viability, T/C [2] was 98.3% and the viability, T/C [3] was 101%. It also gave a viability, T/C [4] of 91.5%, a viability, T/C [5] of 84.5% and a viability, T/C [6] of 82.4%. For the same molecule, the viability, T/C [7] was 116%, the viability, T/C [8] was 107% and the viability, T/C [9] was 90.2%. It also gave a viability, T/C [10] of 100%, a viability, T/C [11] of 95.2% and a viability, T/C [12] of 81.9%. For the same molecule, the viability, T/C [13] was 108%, the viability, T/C [14] was 105% and the viability, T/C [15] was 102%. It also gave a viability, T/C [16] of 91.1%, a viability, T/C [17] of 84.8% and a viability, T/C [18] of 79.3%. It also gave a viability, T/C [19] of 105%, a viability, T/C [20] of 87.2% and a viability, T/C [21] of 97.8%. For the same molecule, the viability, T/C [22] was 89.6%, the viability, T/C [23] was 84.8% and the viability, T/C [24] was 76.1%. The viability, T/C [25] was 79.8%, the viability, T/C [26] was 81.4% and the viability, T/C [27] was 87.6%. For the same molecule, the viability, T/C [28] was 84.2%, the viability, T/C [29] was 83.5% and the viability, T/C [30] was 71.1%. It also gave a viability, T/C [31] of 81.7%, a viability, T/C [32] of 79.5% and a viability, T/C [33] of 76.7%. It also gave a viability, T/C [34] of 82.4%, a viability, T/C [35] of 78.3% and a viability, T/C [36] of 70.7%.
